Data on 1 compound can be found in US11207289B2, “Use of benzofuran lignans to induce IL-25 expression and suppress mammary tumor metastasis” (ACADEMIA SINICA, priority 2016, dated 2021).

SMILES strings stand for the structures.

A short description of data set [1]: MTT assay, cytotoxic effect on M10. The format is cell-based. Particulars: human, M10 cells (normal human mammary epithelial cell line). As for the experimental part: (§1) M10, WI38, SKBR3, and MDA-MB-231 cells (1×10^5 cells/ml) dispensed in 96-well plates were incubated with vehicle or test compounds (Q2-3) for 24 h or 72 h in corresponding basal medium in a 5% CO2 incubator. To evaluate the effect of secreted IL-25 from Q2-3-treated fibroblasts on growth activity of mammary tumor cells, 4T1 and MDA-MB-231 cells (1×10^4 cells/ml) dispensed in 96-well plates were incubated with control medium or different fibroblast conditioned media (200 μl/ml) which was changed daily for 5 days. All treatments were performed in triplicate cell cultures. The growth activity of cells was assayed using a 3-(4, 5-dimethythiazol-2-yl)-2, 5-diphenyl tetrazolium bromide (MTT; Sigma-Aldrich) colorimetric method. The absorbance at 570 nm (A570) was measured using a multiwall scanning spectrophotometer.
FIG. 1 is a schematic depiction of cytotoxic effects of dihydrobenzofuran lignan (Q2-3) on breast tumor cells. (a): Scheme for synthesis of Q2-3 (methyl (E)-3-[2-(3,4-dihydroxyphenyl)-7-hydroxy-3-methoxycarbonyl-2,3-dihydro-1-benzofuran-5yl]prop-2-enoate) from two caffeic acid methyl ester molecules. […] The beginning cytotoxic dosage of Q2-3 was detected at 0.3 μM, with >50% kill rate on SKBR3 and MDA-MB-231 cells. […]
(Tetrazolium dyes change colour on reduction, which living cells bring about.)

Data set [2] deals with IL-25. In words: IL-25 expression in lung fibroblasts, 4T1 tumor resection model (IF staining, flow cytometry). Type of data set: in vivo, mice. As for the experimental part:
BALB/c mice were subcutaneously injected with 4T1-Luc2 cells (5×10^5/100 μl PBS/mouse) into the fourth mammary fat pad under isoflurane anesthesia. Tumor growth was monitored by measuring the tumor volume according to the formula: volume=length×(width)^2/2. After tumors were established (180-200 mm^3) on day 14, test mice were divided into different groups (8 mice/group) and subjected to different treatments. At 15 days post tumor cell implantation, primary 4T1 tumors in situ were surgically removed by a tumor resection process. For drug treatment, mice were administered with different agents, including vehicle-control (PBS), mouse IL-25 protein (10 μg/kg, ProSpec, Vineland, N.J.), Q2-3 (2, 20 or 100 μg/kg) or docetaxel (2 mg/kg; Sigma-Aldrich), by intravenous injection for 3 weeks (3 injections/week) post tumor resection. For in vivo neutralization of mouse IL-25 activity, mice were treated intraperitoneally with either 100 μg anti-mouse IL-25 (IL-17E) antibody (clone 35B; Biolegend) or isotype control rat IgG (100 μg; rat, IgG1κ; Biolegend) at days 0, 3, 6, 9, 12, 15, 18 post tumor resection. To detect metastasis of human MDA-MD-231-Luc2 tumor cells, nude mice were injected subcutaneously with 5×10^5 MDA-MD-231-Luc2 cells into the mammary fat pad under isoflurane anesthesia. After tumors were established (250-350 mm^3) on day 24, test mice were divided into different groups (8 mice/group) and subjected to different treatments. At 25 days post tumor cell implantation, primary MDA-MD-231-Luc2 tumors in situ were surgically removed by a tumor resection process. For drug treatment, mice were administered with PBS (vehicle-control), Q2-3 (100 μg/kg), docetaxel (5 mg/kg) or Q2-3 (100 μg/kg)+docetaxel (5 mg/kg), by intravenous injection for 3 weeks (3 injections/week) post tumor resection. To monitor the progression of mouse (4T1) or human (MDA-MD-231) metastatic tumors, test mice treated with different drugs/agents were compared for their tumor metastatic activity and survival rate aftern another 8 weeks. Bioluminescence signals from the 4T1-luc2 tumor cells in test mice were analyzed using a non-invasive IVIS imaging system (Calipers, Hopkinton, Mass.) after intraperitoneal injection of 150 mg/kg D-luciferin (NanoLight technology, Pinetop, Ariz.).
Lung tissue specimens obtained from each tumor-resected mouse were fixed with 4% formalin and embedded in paraffin. For histological comparison, 6 μm-thick tissue sections were made and stained with hematoxylin and eosin (H&E). For immunofluorescence staining, fixed tissue sections were initially immersed in boiling sodium citrate buffer (0.01 M sodium citrate buffer, pH 6.0) for 30 min Lung tissue sections were blocked with 5% nonfat milk, and incubated with anti-FSP-1 antibody (1:200 dilution; Millipore), FITC-conjugated anti-CD206 antibody (1:200 dilution; Biolegend) or PE-conjugated anti-IL-25 antibody (1:100; R&D) in 1% nonfat milk for 1 hour at room temperature. Sections were then washed with PBS containing 0.1% Tween 20. To detect primary antibodies, some sections were incubated with FITC-conjugated anti-mouse-IgG (1:200; Jackson Immunoresearch, West Grove, Pa.) for FSP-1. 4′,6-Diamidino-2-phenylindole dihydrochloride (1 μg/ml; Sigma-Aldrich) was used to stain the nuclei. Fluorescence microscopy evaluation of immunostained tissue sections was performed using a Zeiss Axiovert 200 M microscope (Carl Zeiss, Heidelberg, Germany) Images were captured with a digital camera (Orca ER, Hamamatsu) and processed using Axiovision 4.6.3 (Carl Zeiss).
For detection of myeloid derived suppressor cells (MDSCs), cells from mouse lung tissue in each group were collected and stained for 30 min at 4° C. with antibodies against specific cell markers, including FITC-conjugated anti-mouse CD11b (for cell surface), APC-Cy7 conjugated anti-mouse Ly-6C and PE conjugated anti-mouse Ly-6G, (both for intracellular staining). All three antibodies were obtained from Biolegend, (San Diego, Calif.). […]

The subject of data set [3] is MDA-MB-231 cells. In words: MTT assay, cytotoxic effect on MDA-MB-231. Type of data set: cell-based, human. As to the method: as §1
FIG. 1 is a schematic depiction of cytotoxic effects of dihydrobenzofuran lignan (Q2-3) on breast tumor cells. (a): Scheme for synthesis of Q2-3 (methyl (E)-3-[2-(3,4-dihydroxyphenyl)-7-hydroxy-3-methoxycarbonyl-2,3-dihydro-1-benzofuran-5yl]prop-2-enoate) from two caffeic acid methyl ester molecules. (b) and (c): MTT assays for cytotoxic effect of Q2-3 on SKBR3 (ER^−Her^+ human breast cancer cell line), MDA-MB-231 (ER^−Her^− human breast cancer cell line), M10 (human normal epithelial cell line) and WI38 (human lung fibroblast cell line). 2×10^4 cells were seeded and compared for their growth activity after treatment with Q2-3 for 24 or 72 h. The beginning cytotoxic dosage of Q2-3 was detected at 0.3 μM, with >50% kill rate on SKBR3 and MDA-MB-231 cells.
The effects of Q2-3 on cell viability were tested on four different cell lines, i.e., normal human mammary epithelial (M10), normal human […] (WI38), and two human mammary tumor cells (SKBR3 and MDA-MB-231), by treating cells with Q2-3 at various concentrations for 24 h (FIG. 1b) and 72 h (FIG. 1c).

Data set [4] concerns MCF-7 cells. Particulars: cited from earlier work.

For the compound `COC(=O)/C=C/c1cc(O)c2c(c1)C(C(=O)OC)C(c1ccc(O)c(O)c1)O2` (stereo not drawn) [Q2-3, methyl(E)-3-[2-(3,4-dihydroxyphenyl)-7-hydroxy-3-methoxycarbonyl-2,3-dihydro-1-benzofuran-5yl]-prop-2-enoate], the viability (usually a read-out of living cells in per cent, often relative to untreated cells) at 2 µM in data set [1] was no less than 80%. In data set [2] (3 weeks post tumor resection, PBS control 5.2%), the “total FSP-1+ER-TR7+ fibroblast population in lung” value stood at 7.3%. For the same compound, the “cell population of IL-25+ fibroblasts (FSP-1+ER-TR7+IL-25+ cells) in lung” value in data set [2] (3 weeks post tumor resection, PBS control 16.7%) is listed as 79.5%. Besides, the “IL-25 expression in lung fibroblasts (IF staining)” value in data set [2] (Q2-3 100 μg/kg, 21 days post tumor resection) is “readily detectable stimulatory effect”. For the same compound, in data set [2] (data not shown), the “increase in FSP-1+IL-25+ fibroblast population in spleen or other tissues” value is “not detected”. The inhibition – broadly, the relative decrease from the control value, in per cent – at 0.5 µM in data set [3] (Homo sapiens, ≥0.5 μM, 24 h and 72 h, vs 0.1% DMSO control, read-out: growth inhibition) is no less than 60%. Besides, in data set [3] (at 0.3 μM), the kill rate was greater than 50%. The compound also gave a beginning cytotoxic dosage in data set [3] (treatment 24 or 72 h) of 0.3 µM. Further, in data set [4], the anti-proliferation effect result was “significant anti-proliferation effect”.
